Source: patent US12466834B2, “Imidazodiazepinediones and methods of use thereof” (GFB (ABC), LLC, priority 2018, dated 2025)

Molecular target: T1, human TRPC5 (Homo sapiens, UniProt Q9UL62)
T1 construct: expressed in transfected cells
T1 sequence (Q9UL62 1-973): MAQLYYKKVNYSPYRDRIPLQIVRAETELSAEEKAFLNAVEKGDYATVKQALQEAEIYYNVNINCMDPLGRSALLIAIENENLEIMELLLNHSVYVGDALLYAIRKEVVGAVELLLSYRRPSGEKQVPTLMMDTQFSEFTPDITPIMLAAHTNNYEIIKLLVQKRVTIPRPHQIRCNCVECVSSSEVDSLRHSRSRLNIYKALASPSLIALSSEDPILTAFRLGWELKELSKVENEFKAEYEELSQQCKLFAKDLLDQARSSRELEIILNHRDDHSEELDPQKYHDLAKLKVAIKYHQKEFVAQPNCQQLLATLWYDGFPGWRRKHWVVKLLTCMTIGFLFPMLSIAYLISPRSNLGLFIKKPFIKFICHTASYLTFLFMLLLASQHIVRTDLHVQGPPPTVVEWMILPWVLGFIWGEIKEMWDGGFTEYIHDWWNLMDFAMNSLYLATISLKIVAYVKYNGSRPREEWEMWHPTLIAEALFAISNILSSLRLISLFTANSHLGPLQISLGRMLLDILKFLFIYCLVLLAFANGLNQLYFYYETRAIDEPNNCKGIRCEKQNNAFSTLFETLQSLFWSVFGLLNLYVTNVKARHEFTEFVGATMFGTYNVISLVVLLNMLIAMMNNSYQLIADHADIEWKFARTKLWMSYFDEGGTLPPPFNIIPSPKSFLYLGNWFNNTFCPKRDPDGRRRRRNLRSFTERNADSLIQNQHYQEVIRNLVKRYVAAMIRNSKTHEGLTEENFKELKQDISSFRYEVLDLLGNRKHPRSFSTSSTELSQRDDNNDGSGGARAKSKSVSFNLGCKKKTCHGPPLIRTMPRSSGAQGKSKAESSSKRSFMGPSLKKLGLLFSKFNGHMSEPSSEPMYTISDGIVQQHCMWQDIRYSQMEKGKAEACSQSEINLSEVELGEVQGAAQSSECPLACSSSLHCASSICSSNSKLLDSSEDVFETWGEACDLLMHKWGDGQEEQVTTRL
Experiment: Automated patch clamp assay (QPatch), antagonist mode
Assay type: cell-based
Settings: HEK-TREx hTRPC5 cells; channel activated with Rosiglitazone 30 μM; normalised to ML-204 block; read-out: Qpatch Potency Range
Experimental: ICLN-1633 cells (HEK-TREx hTRPC5) expressing TRPC5 were generated as follows. Commercially available HekTrex-293 cells were seeded at 0.7×10^6 cells/well in a 1×6-well plate 24 hrs prior to transfection using 2 mL cell growth media containing no antibiotics (1× DMEM/high glucose (Hyclone #SH30022.02); 10% fetal bovine serum (Sigma) 2 mM sodium pyruvate, 10 mM HEPES). The human TRPC5 coding sequence (NM_012471 with a silent T478C mutation) was cloned into pcDNA5/TO (Invitrogen; Cat No. V103320) using hygromycin as the resistance gene and the plasmid (SEQ ID NO:1) propagated using T-Rex-293 cells (Invitrogen; Cat No. R71007) following manufacturer's directions. On day 2, 2 μg of plasmid DNA plus 6 μl of Xtreme-GENE HP reagent in Optimem (200 μl total volume) was prepared and incubated for 15 min at room temperature. This plasmid solution was then gently overlayed dropwise onto each well and the plate was gently swirled to mix complex with the media for approximately 30 seconds. Transfected cells were incubated at 37° C. in a 10% CO2 incubator for 24 hrs. The transfected cells were harvested and transferred into 2×150 mm dishes containing cell growth media with no antibiotics at 37° C.
The next day selection was initiated to generate a stable pool by adding cell growth media containing 150 μg/mL Hygromycin and 5 μg/mL Blasticidin and cells were allowed to grow. Media with the selection agent was changed every 1-2 days as needed to remove dead cells. After 7 days, the hygromycin concentration was reduced to 75 μg/mL and cells growth was allowed to continue.
Single clones were selected as follows. The stable pool was diluted to 10 cells/mL and seeded (100 μl/well) into 24×96 well plates (˜1 cell/well) and allowed to grow for 7 days in cell growth media. Fresh media (100 μl) was added and the cells allowed to grow for another 1-2 weeks and then stored frozen or used immediately.
The automated electrophysiological assay was carried out at room temperature. On the day of the experiment, TRPC5 cells were cultured according to our Standard Operating Procedure. Briefly, cells were harvested using TrypLE™ Express, re-suspended in serum free medium, added to the automated platform and used within 0.5-3 hours. Internal and external physiological solutions were freshly prepared prior to the assay. The external solution contained: 145 mM NaCl, 4 mM KCl, 2 mM CaCl2, 1 mM MgCl2, 10 mM HEPES, 10 mM glucose, pH 7.4 with NaOH and 310 mOsm/L. The internal solution contained 120 mM L-aspartic acid, 120 mM CsOH·H2O, 20 mM CsCl, 2 mM MgCl2, 8.8 mM CaCl2, 10 mM EGTA, 10 mM HEPES and 2 mM Na2ATP; pH 7.2 with CsOH and 330 mOsm/L. The free internal Ca^2+ concentration was buffered to 1 μM, according to the WCabuf software. The automated electrophysiological platform QPatch 16 from Sophion (Denmark) was used to carry out the compounds profiling. The series resistance and quality of seals were continuously monitored during the experiments. Data were analyzed using Sophion QPatch assay software 5.6 (Odense). Data were normalized using the maximum activation obtained during the pre-compound agonist application as the top value (1.0) and maximum inhibition induced by ML-204 as the bottom value (0.0). IC50 values were calculated using a least squares regression algorithm (Hill equation).
To monitor the ion currents, a voltage ramp from −100 mV to +100 mV, over 300 ms, was applied every 10 seconds, from a holding potential of −60 mV. Antagonist-mode: After recording for a minimum of 60 seconds control period, the EC60 concentration of the TRPC5 agonist, Rosiglitazone (30 μM), was applied to activate the channel. After reaching steady-state, co-application of increasing concentrations of test compound were applied followed by two applications of Rosiglitazone EC60 and a saturating concentration of the specific blocker ML-204 (100 μM).

IC50 [µM]	Structure (SMILES)
> 30	C[C@@H]1C(=O)N(C)c2nc(Oc3cccc(F)c3)n(Cc3ccc(Cl)cc3)c2C(=O)N1CCCO (single isomer, unassigned) [Compound 19]
> 30	O=C1c2c(nc(Oc3cccc(OC(F)(F)F)c3)n2Cc2ccc(Cl)cc2)N2CCC[C@H]2C(=O)N1CCCO (single isomer, unassigned) [Compound 22]
1 to 30	O=C1c2c(nc(Oc3cccc(OC(F)(F)F)c3)n2Cc2ccc(Cl)cc2)N2CCC[C@@H]2C(=O)N1CCCO (single isomer, unassigned) [Compound 23]
1 to 30	CN1CC(=O)N(CCCO)C(=O)c2c1nc(Oc1cccc(OC(F)(F)F)c1)n2Cc1ccc(Cl)cc1 [Compound 21, 1-[(4-chlorophenyl)methyl]-7-(3-hydroxypropyl)-4-methyl-2-[3-(trifluoromethoxy)phenoxy]-1H,4H,5H,6H,7H,8H-imidazo[4,5-e][1,4]diazepine-6,8-dione]
